Tests used:
786-O = assay: ATPlite cell IC50 screening, 786-O; type: cell-based; conditions: Homo sapiens, 786-0, Renal cell carcinoma, ATPlite luminescence
Procedure: (§1) In brief, the cells were cultures in relevant medium and treated with a range of 9 doses of 2-deoxyribitol, from 10 mM, 5 mM, 2.5 mM, 1.25 mM, 0.62 mM, 0.31 mM, 0.08 mM, and 0.04 mM. Cells were diluted in the corresponding ATCC recommended medium and dispensed in a 384-well plate, depending on the cell line used, at a density of 100-6400 cells per well in 45 μl medium. For each used cell line the optimal cell density was used. The margins of the plate were filled with phosphate-buffered saline. Plated cells were incubated in a humidified atmosphere of 5% CO2 at 37° C. After 24 hours, 5 μl of compound dilution was added and plates were further incubated. At the end of experiment (t=end), 24 μl of ATPlite 1Step™ (PerkinElmer) solution was added to each well, and subsequently shaken for 2 minutes. After 10 minutes of incubation in the dark, the luminescence was recorded on an Envision multimode reader (PerkinElmer). IC50 was determined in comparison with the control samples. The cell lines tested and their corresponding disease model is indicated the left-most and middle columns, respectively. IC50 values are given in μM values in the right-most column. This screening was performed of a list of cancer cells to establish IC50 values for each of the cancer cell lines. This screening provides evidence for the potential of 2DR to treat many cancer types.

A-427 = assay: ATPlite cell IC50 screening, A-427; type: cell-based; conditions: Homo sapiens; A-427, Lung adenocarcinoma; ATPlite luminescence
Procedure: as §1

BT-549 = assay: ATPlite cell IC50 screening, BT-549; type: cell-based; conditions: Homo sapiens; BT-549, Invasive ductal carcinoma; ATPlite luminescence
Procedure: as §1

CCRF-CEM = assay: ATPlite cell IC50 screening, CCRF-CEM; type: cell-based; conditions: Homo sapiens, Childhood T acute lymphoblastic leukemia, ATPlite luminescence
Procedure: as §1

COLO 205 = assay: ATPlite cell IC50 screening, COLO 205; type: cell-based; conditions: Homo sapiens; COLO 205, Colon adenocarcinoma; ATPlite luminescence
Procedure: as §1

DB = assay: ATPlite cell IC50 screening, DB; type: cell-based; conditions: Homo sapiens, Diffuse large B-cell lymphoma, ATPlite luminescence
Procedure: as §1

HCT-15 = assay: ATPlite cell IC50 screening, HCT-15; type: cell-based; conditions: Homo sapiens; HCT-15, Colon adenocarcinoma; ATPlite luminescence
Procedure: as §1

HL-60 = assay: ATPlite cell IC50 screening, HL-60; type: cell-based; conditions: Homo sapiens; HL-60, Adult acute myeloid leukemia; ATPlite luminescence
Procedure: as §1

J82 = assay: ATPlite cell IC50 screening, J82; type: cell-based; conditions: Homo sapiens; J82, Bladder carcinoma; ATPlite luminescence
Procedure: as §1

LS411N = assay: ATPlite cell IC50 screening, LS411N; type: cell-based; conditions: Homo sapiens, LS-411N, Cecum adenocarcinoma, ATPlite luminescence
Procedure: as §1

MOLT-4 = assay: ATPlite cell IC50 screening, MOLT-4; type: cell-based; conditions: Homo sapiens; MOLT-4, Adult T acute lymphoblastic leukemia; ATPlite luminescence
Procedure: as §1

PA-1 = assay: ATPlite cell IC50 screening, PA-1; type: cell-based; conditions: Homo sapiens; PA-1, Ovarian mixed germ cell tumor; ATPlite luminescence
Procedure: as §1

PC-3 = assay: ATPlite cell IC50 screening, PC-3; type: cell-based; conditions: Homo sapiens; PC-3, Prostate carcinoma; ATPlite luminescence
Procedure: as §1

RKO = assay: ATPlite cell IC50 screening, RKO; type: cell-based; conditions: Homo sapiens, Colon carcinoma, ATPlite luminescence
Procedure: as §1

RL = assay: ATPlite cell IC50 screening, RL; type: cell-based; conditions: Homo sapiens, Diffuse large B-cell lymphoma, ATPlite luminescence
Procedure: as §1

RS4-11 = assay: ATPlite cell IC50 screening, RS4-11; type: cell-based; conditions: Homo sapiens; RS4-11, Adult B acute lymphoblastic leukemia; ATPlite luminescence
Procedure: as §1

RT4 = assay: ATPlite cell IC50 screening, RT4; type: cell-based; conditions: Homo sapiens, RT-4; RT4, Bladder carcinoma; ATPlite luminescence
Procedure: as §1

SR = assay: ATPlite cell IC50 screening, SR; type: cell-based; conditions: Homo sapiens, Anaplastic large cell lymphoma, ATPlite luminescence
Procedure: as §1

SUP-T1 = assay: ATPlite cell IC50 screening, SUP-T1; type: cell-based; conditions: Homo sapiens; SUP-T1, Childhood T lymphoblastic lymphoma; ATPlite luminescence
Procedure: as §1

SW982 = assay: ATPlite cell IC50 screening, SW982; type: cell-based; conditions: Homo sapiens; SW982, Biphasic synovial sarcoma; ATPlite luminescence
Procedure: as §1

T24 = assay: ATPlite cell IC50 screening, T24; type: cell-based; conditions: Homo sapiens, T-24; T24, Bladder carcinoma; ATPlite luminescence
Procedure: as §1

[1] = tested on: normal human myoblasts (HSKM cells); assay: Normal human myoblast culture (FIG. 7); type: cell-based; conditions: HSKM cells, 2, 10, 20 mM, 3 days
Procedure: Three different doses were tested as labeled in the images: 2 mM (top right panel), 10 mM (bottom left panel), and 20 mM (bottom right panel) 2-deoxyribitol. No-drug control is shown in top left panel. Drug effect on growth of the cells is not clearly visible.
In contrast, 2-deoxyribitol produced unnoticeable changes in cell culture of normal human myoblasts or differentiated myotubes (FIG. 7), indicating its low toxicity potential to normal cell populations. In this study, normal human myoblasts (HSKM cells) were treated with 2-deoxyribitol (Drug) for 3 days.

[2] = tested on: alpha dystroglycan (α-DG); assay: Glycosylation of alpha dystroglycan; type: cell-based
From the text: This invention applies a synthetic molecule, 2-deoxyribitol, to treat cancer for growth inhibition and cancer cell killing. Naturally-occurring ribitol is a metabolite, but its metabolic pathway has not been clearly defined. Recently, ribitol has been identified as a precursor of CDP-ribitol, the substrate used for the synthesis of sugar modification of a membrane protein, alpha dystroglycan (α-DG). […] The loss or reduced expression of glycosylation of α-DG has been linked to cancer progression and metastasis in breast and other cancers in clinics, and enhanced glycosylation of α-DG may inhibit cancer cell growth and tumorigenicity. This study screened several different pentose and pentitol molecules including ribose, 2-deoxyribose, ribulose, 2-deoxyribitol, xylose, and xylitol to evaluate these sugar molecules for the effects of enhancing glycosylation of α-DG and inhibiting cancer cell growth/tumorigenicity.

Storage stability = type: physicochemical; conditions: 4 degrees Celsius, highly stable
From the text: It can be delivered by direct application to local areas, given orally or through vasculature system. 2-deoxyribitol can also be delivered before, at the same time, or after the use of other drugs. 2-deoxyribitol can be applied as treatment for cancers before, at the same time, or after any other treatment procedure(s). In addition, the effect of 2-deoxyribitol on three tissue types of cancers indicate that it can be applied for many other epithelial cancers.

Structure (SMILES): OCC[C@H](O)[C@H](O)CO [2-deoxyribitol]
- IC50 (786-O): 8.57 mM
- IC50 (A-427): 3.95 mM
- IC50 (BT-549): 4.27 mM
- IC50 (CCRF-CEM): 5.97 mM
- IC50 (COLO 205): 4.54 mM
- IC50 (DB): 4.08 mM
- IC50 (HCT-15): 7.7 mM
- IC50 (HL-60): 7.46 mM
- IC50 (J82): 3.63 mM
- IC50 (LS411N): 6.97 mM
- IC50 (MOLT-4): 4.94 mM
- IC50 (PA-1): 3.49 mM
- IC50 (PC-3): 3.68 mM
- IC50 (RKO): 5.77 mM
- IC50 (RL): 3.4 mM
- IC50 (RS4-11): 3.06 mM
- IC50 (RT4): > 10 mM
- IC50 (SR): 4.25 mM
- IC50 (SUP-T1): 3.06 mM
- IC50 (SW982): 2.78 mM
- IC50 (T24): > 10 mM
- cell density or myofiber formation versus control [1]: No difference in cell density or myofiber formation
- glycosylation of α-DG [2]: did not enhance glycosylation of α-DG
- stability on storage (Storage stability): at least 6 months

— patent US12257214B2, “Compositions and methods comprising deoxy-pentitols” (The Charlotte Mecklenburg Hospital Authority, priority 2021, dated 2025)
